Experimental findings from US20260355169A1, “METHODS OF TREATING CANCERS USING ISOQUINOLINE OR 6-AZA-QUINOLINE DERIVATIVES” (Black Diamond Therapeutics, Inc., priority 2022, published 2026) are described below.

One data set concerns A375-Luc melanoma cells. As to the kind of experiment: Combination with binimetinib in mice with A375-Luc melanoma (BRAF V600E). The data set is classed as in vivo, BALB/c nude mice. To be noted: 35 days, oral gavage; monotherapy or combination. How it is done:
(§1) Anti-tumor activity of a compound of the present disclosure in combination with binimetinib was also investigated in mice with melanoma cell line with BRAF V600E mutation. BALB/c nude mice implanted with A375-Luc melanoma cells were randomized to control or treatment group when the overall average tumor mean volume was 224 mm^3. Mice were administered twice daily approximately 12 hours apart with vehicle, twice daily approximately 12 hours apart with binimetinib, and once daily with the compound of the present disclosure, or the combination for 35 days by oral gavage. […] For representative results of the study, see FIG. 3.

Data set [1] relates to KRAS G12D patient-derived NSCLC tumor. The data set is described as follows: Combination with binimetinib in mice with KRAS G12D NSCLC PDX model. The data set is classed as in vivo, Nu/Nu mice. To be noted: 50 days, oral gavage; monotherapy or combination. How it is done: as §1, with “was” for “was also”, “with KRAS G12D NSCLC patient-derived xenograft (PDX) model. Nu/Nu” for “with melanoma cell line with BRAF V600E mutation. BALB/c nude”, “with KRAS G12D patient-derived NSCLC tumor” for “with A375-Luc melanoma cells”, “was 172” for “was 224”, “for 50” for “for 35”, “FIG. 2.” for “FIG. 3.”

Data set [2] relates to BaF3 BRAF-KIAA1549 fusion cells. The data set is described as follows: BaF3 BRAF-KIAA1549 fusion cell proliferation assay. The data set is classed as cell-based. To be noted: Mus musculus, BaF3, 96 h, read-out: IC50, inhibition of cell growth, BaF3-BRAF:KIAA1549 Fusion.

With `Cn1cnc2c(F)c(Nc3ccc(Br)cc3F)c(C(=O)NOCCO)cc21` [binimetinib], the body weight loss entry (with A375-Luc melanoma cells; in data set [1]) was “No significant body weight loss” each time. Usually IC50 stands for the concentration that inhibits the measured activity by half. With `CNc1cc2ncc(-c3cc(NC(=O)c4cc([C@@H](C)C(C)(F)F)ccn4)cnc3C)cc2cn1` [compound 248], in data set [2], the IC50 lay in the range of 0.02 to 0.1 µM. In the case of `CNc1cc2ncc(-c3cc(NC(=O)c4cc([C@H](O)C(C)(F)F)ccn4)cnc3C)cc2cn1` [compound 249], the IC50 in data set [2] lay in the range of 0.02 to 0.1 µM.

Turning to `CNCC(F)(F)c1cccc(C(=O)Nc2cnc(C)c(-c3cnc4cc(NC)ncc4c3)c2)n1` [compound 250], the IC50 in data set [2] is over 0.5 µM.

Regarding `CNc1cc2ncc(-c3cc(NC(=O)c4cnc5n4CC(C(F)F)CC5)cnc3C)cc2cn1` (stereo not drawn) [compound 251], in data set [2], the IC50 lay within 0.1 to 0.5 µM.

As to `CNc1cc2ncc(-c3cc(NC(=O)c4n[nH]c5c4C[C@@H]4C[C@H]54)cnc3C)cc2cn1` [compound 252], the IC50 in data set [2] fell in the range of 0.02 to 0.1 µM.

In the case of `CNc1cc2ncc(-c3cc(NC(=O)c4n[nH]c5c4C[C@H]4C[C@@H]54)cnc3C)cc2cn1` [compound 253], in data set [2], the IC50 was in the range of 0.02 to 0.1 µM. As to `CNc1cc2ncc(-c3cc(NC(=O)c4noc5c4CN(C(C)C)CC5)cnc3C)cc2cn1` [compound 254], the IC50 in data set [2] is 0.1 to 0.5 µM. Take `CNc1cc2ncc(-c3cc(NC(=O)c4cc(C(C)(C)C(N)=O)ccn4)ccc3C)cc2cn1` [compound 255]: the IC50 in data set [2] lay in the range of 0.02 to 0.1 µM.

As for `CNc1cc2ncc(-c3cc(NC(=O)c4nccc(C(C)C)c4Cl)cnc3C)cc2cn1` [compound 256], in data set [2], the IC50 was 0.02 to 0.1 µM.

As to `CNc1cc2ncc(-c3cc(NC(=O)c4noc5c4CC(C)(C)CC5)cnc3C)cc2cn1` [compound 257], in data set [2], the IC50 lay in the range of 0.02 to 0.1 µM. Still for that read-out and setting: then `CNc1cc2ncc(-c3cc(NC(=O)c4cnc5n4C[C@@H](C)CC5)cnc3C)cc2cn1` [compound 258], with 0.02 to 0.1 µM; and `CNc1cc2ncc(-c3cc(NC(=O)c4cnc5n4C[C@H](C)CC5)cnc3C)cc2cn1` [compound 259], with 0.02 to 0.1 µM; and `CCC(OC)c1ccnc(C(=O)Nc2cnc(C)c(-c3cnc4cc(NC)ncc4c3)c2)c1` (stereo not drawn) [compound 260], with 0.02 to 0.1 µM. For the molecule `CNc1cc2ncc(-c3cc(NC(=O)c4n[nH]c5c4CC(C)CC5)ccc3C)cc2cn1` (stereo not drawn) [compound 261], in data set [2], the IC50 is under 0.02 µM. Regarding `CNc1cc2ncc(-c3cc(NC(=O)c4n[nH]c5c4CCCC5(C)C)ccc3C)cc2cn1` [compound 262], in data set [2], the IC50 lay in the range of 0.02 to 0.1 µM. `CNc1cc2ncc(-c3cc(NC(=O)c4c[nH]c5ccc(C)cc45)ccc3C)cc2cn1` [compound 263]: in data set [2], the IC50 is under 0.02 µM. The same measure, in the same setting: then `CNc1cc2ncc(-c3cc(NC(=O)c4n[nH]c5c4C[C@H](C)O[C@@H]5C)ccc3C)cc2cn1` [compound 264], with 0.02 to 0.1 µM; and `CNc1cc2ncc(-c3cc(NC(=O)c4cnn5c4CC(C)CC5)ccc3C)cc2cn1` (stereo not drawn) [compound 265], with under 0.02 µM. On the same count and under the same terms, then `CNc1cc2ncc(-c3cc(NC(=O)c4c[nH]c5c4CC(C)CC5)ccc3C)cc2cn1` (stereo not drawn) [compound 266], with 0.02 to 0.1 µM.

As for `CNc1cc2ncc(-c3cc(NC(=O)N4CC[C@@H](CC(F)(F)F)C4)ccc3C)cc2cn1` [compound 267], the IC50 in data set [2] is under 0.02 µM. For `CNc1ncc2cc(-c3cc(NC(=O)c4ccnc(C5(F)CC5)c4)ccc3C)cnc2c1Cl` [compound 269], the IC50 in data set [2] lay within 0.1 to 0.5 µM. Same read-out and setting: to `CNc1ncc2cc(-c3cc(NC(=O)c4ccnc(C(C)(C)C#N)c4)cnc3C)cnc2c1Cl` [compound 270] belongs over 0.5 µM.

Consider `CNc1ncc2cc(-c3cc(NC(=O)c4ccnc(C5(F)CC5)c4)ccc3C)cnc2c1C#N` [compound 271], for which the IC50 in data set [2] is 0.02 to 0.1 µM. The same measure, in the same setting: then `CNc1cc2c(C#N)cc(-c3cc(NC(=O)c4ccnc(C5(F)CC5)c4)ccc3C)cc2cn1` [compound 272], with 0.02 to 0.1 µM. In the case of `CNc1cc2c(C#N)cc(-c3cc(NC(=O)c4ccnc(C(F)(F)F)c4)ccc3C)cc2cn1` [compound 273], the IC50 in data set [2] is 0.1 to 0.5 µM. Still for that read-out and setting: then `Cc1ncc(NC(=O)c2cc(C(F)(F)F)ccn2)cc1-c1ccc2c3c(ncc2c1)NC(=O)C3` [compound 274], with under 0.02 µM; and `Cc1ccc(NC(=O)c2cc(C(C)(C)C#N)ccn2)cc1-c1ccc2c3c(ncc2c1)NC(=O)C3` [compound 275], with 0.02 to 0.1 µM; and `Cc1ccc(NC(=O)c2ccnc(C(C)(C)F)c2)cc1-c1ccc2c3c(ncc2c1)NC(=O)C3` [compound 276], with under 0.02 µM.
